One data set deals with PANC-1. In words: Antiproliferative activity against human PANC-1 cells assessed as inhibition of cell viability incubated for 48 hrs by CCK8 assay. The format is functional, cell-based. The note with it: PANC-1, 48 h. On the technique in general: Tetrazolium dyes change colour on reduction, which living cells bring about.
A further data set relates to CT26. In words: Antiproliferative activity against mouse CT26 cells assessed as inhibition of cell viability incubated for 48 hrs by CCK8 assay. The format is functional, cell-based. The note with it: CT26, 48 h.
In a further data set the test system is HepG2. In words: Antiproliferative activity against human HepG2 cells assessed as inhibition of cell viability incubated for 48 hrs by CCK8 assay. Format: functional, cell-based. The following applies: HepG2, 48 h.
Another data set deals with SW480. Nature of the data set: Antiproliferative activity against human SW480 cells assessed as inhibition of cell viability incubated for 48 hrs by CCK8 assay. The following applies: SW480, 48 h. The format is functional, cell-based.
A further data set deals with HeLa. In words: Antiproliferative activity against human HeLa cells assessed as inhibition of cell viability incubated for 48 hrs by CCK8 assay. Format: functional, cell-based.
The test system of another data set is MCF7. In words: Antiproliferative activity against human MCF7 cells assessed as inhibition of cell viability incubated for 48 hrs by CCK8 assay. The following applies: MCF7, 48 h. Format: functional, cell-based.
For a further data set, the system named is HCT-116. In words: Antiproliferative activity against human HCT-116 cells assessed as inhibition of cell viability incubated for 48 hrs by CCK8 assay. Format: functional, cell-based. The note with it: HCT-116, 48 h.
Data set [1] addresses T1, Peptidyl-prolyl cis-trans isomerase A (Homo sapiens, UniProt P62937). In words: Inhibition of PPIA (unknown origin) using N-succinyl-Ala-Ala-Pro-Phe-p-nitroanilide as substrate preincubated for 1 hr followed by substrate addition measured for 6 mins by absorbance based assay.
The target in data set [2] is T1, Peptidyl-prolyl cis-trans isomerase A. In words: Inhibition of PPIA (unknown origin).
Data set [3] shares this target. In words: Binding affinity to PPIA (unknown origin) assessed as dissociation constant.
Data set [4] in a line: Toxicity in BALB/c mouse implanted with mouse CT26 cells assessed as histopathological change in spleen at 45 mg/kg, ip qd treated for 14 days by H and E staining based analysis. Format: organism-based. The following applies: in vivo, 336 h, time 14 day.
A short description of data set [5]: Toxicity in BALB/c mouse implanted with mouse CT26 cells assessed as histopathological change in kidney at 45 mg/kg, ip qd treated for 14 days by H and E staining based analysis. The format is organism-based. The note with it: in vivo, 336 h, time 14 day.
Data set [6] is described as follows: Toxicity in BALB/c mouse implanted with mouse CT26 cells assessed as change in body weight at 45 mg/kg, ip qd treated for 14 days. Format: organism-based. The note with it: in vivo, 336 h, time 14 day.
Data set [7] can be described thus: Toxicity in BALB/c mouse implanted with mouse CT26 cells assessed as histopathological change in heart at 45 mg/kg, ip qd treated for 14 days by H and E staining based analysis. The format is organism-based. The following applies: in vivo, 336 h, time 14 day.
Data set [8] is described as follows: Toxicity in BALB/c mouse implanted with mouse CT26 cells assessed as histopathological change in lung at 45 mg/kg, ip qd treated for 14 days by H and E staining based analysis. Format: organism-based. The following applies: in vivo, 336 h, time 14 day.
A short description of data set [9]: Toxicity in BALB/c mouse implanted with mouse CT26 cells assessed as histopathological change in liver at 45 mg/kg, ip qd treated for 14 days by H and E staining based analysis. The format is organism-based. The note with it: in vivo, 336 h, time 14 day.

T1 sequence (P62937 whole entry): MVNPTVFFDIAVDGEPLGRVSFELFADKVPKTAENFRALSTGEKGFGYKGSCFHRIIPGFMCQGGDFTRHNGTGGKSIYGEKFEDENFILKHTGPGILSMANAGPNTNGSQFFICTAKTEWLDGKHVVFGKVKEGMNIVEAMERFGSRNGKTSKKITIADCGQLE

`C/C=C/C[C@@H](C)[C@@H](O)[C@H]1C(=O)N[C@@H](CC)C(=O)N(C)CC(=O)N(C)[C@@H](CC(C)C)C(=O)N[C@@H](C(C)C)C(=O)N(C)[C@@H](CC(C)C)C(=O)N[C@@H](C)C(=O)N[C@H](C)C(=O)N(C)[C@@H](CC(C)C)C(=O)N(C)[C@@H](CC(C)C)C(=O)N(C)[C@@H](C(C)C)C(=O)N1C` [CYCLOSPORINE]: the IC50 – broadly, the concentration that gives 50% inhibition – in the data set on PANC-1 came to 13.3 µM; in the data set with CT26, 11.4 µM; in the data set with HepG2, 12.3 µM; with SW480 it was 5.16 µM; with HeLa it was 2.17 µM; in the data set on MCF7, 6.12 µM.

Take `C=C(C(=O)OC)N1c2nc(Cl)nc(Cl)c2N2C(c3ccccc3Cl)OC(C(=O)OCC)(C(=O)OCC)C12` (racemic): the IC50 came out at 4.46 µM in the data set with PANC-1; 1.12 µM in the data set on CT26; 0.67 µM in the data set with HCT-116; 3.25 µM with HepG2; 5.43 µM in the data set on SW480; 0.89 µM in the data set with HeLa. Moreover, the IC50 in the data set on MCF7 was determined as 1.9 µM.

In the case of `C=C(C(=O)OC)N1c2nc(Cl)nc(Cl)c2N2C(c3ccccc3Br)OC(C(=O)OCC)(C(=O)OCC)C12` (racemic), the IC50 was determined as 4.61 µM in the data set with PANC-1; 2.5 µM with CT26; 3.11 µM in the data set on HCT-116; 4.87 µM in the data set with HepG2; 6.99 µM in the data set on SW480; 2.15 µM with HeLa. Moreover, in the data set with MCF7, the IC50 amounted to 3.49 µM.

Regarding `CC[C@H]1C[C@H](C)[C@@]2(NC1=O)O[C@@H](C[C@H](O)[C@@H](C)CC/C=C/C=C(\C)[C@@H]1C/C=C/C=C/[C@H](O)[C@H](C)[C@@H](O)[C@@H](CCC(C)=O)C(=O)N[C@@H](C(C)C)C(=O)N[C@@H](Cc3cc(O)cc(F)c3)C(=O)N3CCC[C@H](N3)C(=O)O1)[C@H](C)[C@H](O)[C@@H]2C`, it took 0.00049 µM to reach half-maximal inhibition in data set [1] (IC50).

As to `C.CC[C@@H]1NC(=O)[C@H]([C@H](O)[C@H](C)CCCCCCNC(C)=O)N(C)C(=O)[C@H](C(C)C)N(C)C(=O)[C@H](CC(C)C)N(C)C(=O)[C@H](CC(C)C)N(C)C(=O)[C@@H](C)NC(=O)[C@H](C)NC(=O)[C@H](CC(C)C)N(C)C(=O)[C@H](C(C)C)NC(=O)[C@H](CC(C)C)N(C)C(=O)[C@@H](C)N(C)C1=O`, the affinity in data set [2] corresponds to a Ki of 0.0025 µM.

On to `C/C=C/C[C@@H](C)[C@@H](O)[C@H]1C(=O)N[C@@H](CC)C(=O)N(C)[C@H](C)C(=O)N(CC)[C@@H](C(C)C)C(=O)N[C@@H](C(C)C)C(=O)N(C)[C@@H](CC(C)C)C(=O)N[C@@H](C)C(=O)N[C@H](C)C(=O)N(C)[C@@H](CC(C)C)C(=O)N(C)[C@@H](CC(C)C)C(=O)N(C)[C@@H](C(C)C)C(=O)N1C` [ALISPORIVIR], for which the Kd (as a rule, the free concentration of one partner at which half of the binding sites on the other are occupied at equilibrium, for simple one-to-one binding) in data set [3] turned out to be 0.008 µM.

For the molecule `O=c1[nH]cc(F)c(=O)[nH]1` [FLUOROURACIL], the IC50 in the data set on PANC-1 came to 14.7 µM; in the data set on CT26, 3.35 µM; with HepG2, 21.9 µM; in the data set on SW480, 14.2 µM; with HeLa it was 4.48 µM. Also, the Activity entry in data set [4] is recorded as “Non-toxic”; in data set [5] it was “Non-toxic”; in data set [6] it was “Toxic”; in data set [7], “Non-toxic”; in data set [8], “Non-toxic”; in data set [9], “Non-toxic”.

`CCOC(=O)/C=C/N1c2nc(Cl)nc(Cl)c2N2C(c3ccccc3)OC(CO)C12` (racemic): the IC50 in the data set with HCT-116 turned out to be 11.4 µM; in the data set on HeLa, 18.3 µM.

As to `CCOC(=O)/C=C/N1c2nc(Cl)nc(Cl)c2N2C(c3ccccc3)OC(CO)(CO)C12` (racemic), the IC50 in the data set with HCT-116 is 11.2 µM; in the data set on HeLa, 15.4 µM.

For the origin of these results see ChEMBL document CHEMBL6103618, “Discovery of Novel Oxazolo[4,3-f]purine Derivatives as Antitumor Agents through PPIA Interaction” (J Med Chem, 2025).
